{
  "source": "patent EP2077092A2",
  "about": "“System and Methods for Screening or Analyzing Targets” (Taipei Veterans General Hospital, priority 2007, dated 2009)",
  "type_in_all_cases": "cell-based, Sprague-Dawley (SD) rats",
  "key": {"[1]": {"system": "Bcl-2", "test": "Real-time RT-PCR of Bcl-2 mRNA in IM-treated NSCs", "description": "(§1) All animals used were treated in accordance with the Animal Care and Use Committee guideline at Taipei Veterans General Hospital. The protocol of the present study was also approved by the committee. Adult Sprague-Dawley (SD) rats (8 weeks old, 250 g) were anesthetized with intraperitoneal phenobarbital (Sigma, USA), and the location of their brains was mapped. Then, the brain […]. In brief, tissues from the hippocampus of adult rats were dissociated and incubated in Hank's balanced salt solution (HBSS) containing collagenase (78 units/ml) and hyaluronidase (38 units/ml) for 10 minutes at 37°C. The tissues were then mechanically dissected and placed in a trypsin solution (1.33 mg/ml) at 37°C for another 10 minutes. Dissociated cells were then centrifuged at 150 GG for 5 minutes. […] Viable cells were counted by trypan blue exclusion and plated as 5000 cells/200 µL per well in 96-well plates (Coming Inc, Acton, MA, USA) with no substrate pretreatment. […]\n(§2) For real-time RT-PCR, the total RNA was extracted using the RNAeasy kit (Qiagen, Valencia, CA, USA). […] The quantification in the unknown samples was performed with LightCycler Relative Quantification Software version 3.3 (Roche Molecular Systems, Alameda, CA, USA). […]"}, "[2]": {"system": "MAP2", "test": "Real-time RT-PCR of MAP2 mRNA in IM-treated NSCs", "conditions": "Days 5 and Day 7 IM-treated NSCs vs non IM-treated NSCs, p<0.05", "description": "as §1, §2"}, "[3]": {"system": "Bax", "test": "Real-time RT-PCR of Bax mRNA in IM-treated NSCs", "conditions": "Day 3, Day 5, and Day 7 of IM-treated NSCs", "description": "as §1, §2"}, "[4]": {"system": "Bad", "test": "Real-time RT-PCR of Bad mRNA in IM-treated NSCs", "conditions": "Day 3, Day 5, and Day 7 of IM-treated NSCs", "description": "as §1, §2"}, "[5]": {"system": "Bcl-2 protein", "test": "Bcl-2 protein expression in NSCs by western blot and immunohistochemistry"}, "[6]": {"system": "IL-1β", "test": "IL-1β ELISA in LPS-treated NSCs", "conditions": "vs only LPS-treated NSCs, IM 3 µM, p<0.05"}, "[7]": {"system": "IL-6", "test": "IL-6 ELISA in LPS-treated NSCs", "conditions": "vs only LPS-treated NSCs, IM 3 µM, p<0.05"}, "[8]": {"system": "NSCs", "test": "Immunofluorescent assay of serotonin (5-HT)-positive cells in differentiating NSCs", "conditions": "Day 7 culture of IM-treated NSCs vs non IM-treated NSCs, p<0.05"}, "[9]": {"system": "NSCs", "test": "Microdialysis with HPLC-ECD of 5-HT in the culture medium of IM-treated NSCs", "conditions": "Day 7 and Day 14, IM-treated NSCs vs NSCs without IM treatment, p<0.05"}},
  "data": [
    {"smiles": "CN(C)CCCN1c2ccccc2CCc2ccccc21", "note": "[IM, imipramine]", "values": [
      {"measurement": "levels of Bcl-2 mRNA", "setting": "[1]; 1, 3, and 5 µM IM, Day 7, vs Day 7 non-IM-treated NSCs", "value": "significantly increased"},
      {"measurement": "mRNA levels of Bcl-2", "setting": "[1]; Days 5 and Day 7 IM-treated NSCs vs non IM-treated NSCs, p<0.05", "value": "significantly increased"},
      {"measurement": "mRNA levels of MAP2", "setting": "[2]", "value": "significantly increased"},
      {"measurement": "expression of Bax", "setting": "[3]", "value": "not activated"},
      {"measurement": "expression of Bad", "setting": "[4]", "value": "not activated"},
      {"measurement": "protein expression level of Bcl-2 in LPS-treated NSCs", "setting": "[5]; 3 µM IM vs 1, 2 µM IM-LPS-treated, only LPS-treated and control groups", "value": "significantly increased"},
      {"measurement": "protein levels of Bcl-2 (western blot)", "setting": "[5]; Day 3 IM-treated NSCs vs Day 3 non-IM-treated NSCs, p<0.05", "value": "higher"},
      {"measurement": "expression levels of the Bcl-2 protein (western blot)", "setting": "[5]; Day 7 IM-treated NSCs vs Day 3 or Day 5 IM-treated NSCs, p<0.05", "value": "significantly increased"},
      {"measurement": "protein expression of Bcl-2 (immunohistochemistry)", "setting": "[5]; Day 7 IM-treated NSCs vs NSCs without the IM treatment", "value": "significantly increased"},
      {"measurement": "Bcl-2 expression in NSCs", "setting": "[5]; treatment with IM only or BDNF only", "value": "can activate Bcl-2 expression"},
      {"measurement": "IL-1β production in the LPS-treated NSCs", "setting": "[6]", "value": "effectively reduces"},
      {"measurement": "IL-6 production in the LPS-treated NSCs", "setting": "[7]", "value": "effectively reduces"},
      {"measurement": "percentages of serotonin (5-HT)-positive cells", "setting": "[8]", "value": "significantly increased"},
      {"measurement": "5-HT levels of the culture mediums", "setting": "[9]", "value": "significantly higher"}
    ]}
  ]
}
